{"source": "patent EP0055702B1", "about": "“Antithrombotic treatment” (priority 1980, dated 1982)", "key": {"[1]": {"tested_on": "platelet thrombus formation on damaged aortic wall", "assay": "Indium-111 platelet labelling technique in rabbits", "type": "in vivo", "conditions": "intravenous 72.80 mg/kg", "experimental": "In medicine, arterial thrombosis is diagnosable, for example, by clinical manifestations, by arteriography and, recently, by an indium 111 platelet labelling technique (see, for example, the article entitled \"Differential Effects of Two Doses of Aspirin on Platelet-Vessel Wall Interaction In Vivo\" by K. K. Wu et al being published in the Journal of Clinical Investigation, August, 1981).\nSodium bisulphite was evaluated as an anti-thrombotic agent in vivo using the indium-111 platelet labelling technique in rabbits (see the Wu et al article above cited). The material was administered by intravenous injection (72.80 milligrams per kilogram of animal body weight)."}, "[2]": {"biological_target": "T1, F XII (Homo sapiens, UniProt P00748)", "T1 construct": "from tissue; host or cells: human plasma", "T1 sequence (P00748 20-615)": "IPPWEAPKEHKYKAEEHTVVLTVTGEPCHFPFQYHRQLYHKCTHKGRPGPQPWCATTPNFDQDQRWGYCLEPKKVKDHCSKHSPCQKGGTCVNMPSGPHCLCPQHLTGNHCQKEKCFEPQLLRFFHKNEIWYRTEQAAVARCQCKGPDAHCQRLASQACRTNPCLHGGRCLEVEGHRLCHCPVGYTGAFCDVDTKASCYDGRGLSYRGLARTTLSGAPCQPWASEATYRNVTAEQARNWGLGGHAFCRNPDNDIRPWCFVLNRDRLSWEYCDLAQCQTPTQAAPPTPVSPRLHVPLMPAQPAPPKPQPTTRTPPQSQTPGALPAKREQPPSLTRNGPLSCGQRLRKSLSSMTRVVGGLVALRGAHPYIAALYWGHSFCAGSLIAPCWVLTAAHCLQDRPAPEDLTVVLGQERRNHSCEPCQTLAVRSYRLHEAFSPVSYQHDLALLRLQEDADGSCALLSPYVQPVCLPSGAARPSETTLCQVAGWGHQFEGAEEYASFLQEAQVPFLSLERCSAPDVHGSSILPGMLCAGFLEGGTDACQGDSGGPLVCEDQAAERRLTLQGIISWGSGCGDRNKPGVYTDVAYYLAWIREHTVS", "assay": "Factor XII assay, Example 4", "type": "biochemical", "conditions": "for F XII: Control 86", "source_text": "The evaluation procedure used is that described in \"Human Blood Coagulation, Haemostasis and Thrombosis\", edited by Rosemary Biggs, published by Blackwell Scientific Publications, Oxford, England (2nd Edition), pages 670-705, 1976. […]"}}, "note": "Values joined by “and” are separate entries in the source; they are usually repeats but may differ in a detail not shown here. Equal values may be shown once.", "data": [{"substance": "Sodium bisulphite", "values": [{"measurement": "Platelet accumulation II. at normal vessel wall cpm/gm", "setting": "[1]; rabbits A, B, per gram dry weight of tissue, Control 72,140± 39,040", "value": "98,611 cpm/gm and 83,066 cpm/gm"}, {"measurement": "Platelet accumulation I. at damaged vessel wall cpm/gm", "setting": "[1]; rabbits A, B, per gram dry weight of tissue, Control 1,167,820± 21,310", "value": "133,986 cpm/gm and 146,630 cpm/gm"}, {"measurement": "Platelet accumulation II. at normal vessel wall %", "setting": "[1]; rabbits A, B, percentage of injected radioactivity per gram dry weight, Control 0.03± 0.02", "value": 0.08, "unit": "%"}, {"measurement": "Platelet accumulation I. at damaged vessel wall %", "setting": "[1]; rabbits A, B, percentage of injected radioactivity per gram dry weight, Control 0.44± 0.08, 72.8 mg/kg", "value": "0.11% and 0.15%"}, {"measurement": "reduction of accumulation of platelet thrombus at the damaged vessel wall", "setting": "[1]; rabbits", "value": 70, "unit": "%"}, {"measurement": "effect on Factor XII", "setting": "[2]; 0.5 mg per ml, human plasma", "value": "significant inhibitory effect"}, {"measurement": "F XII", "setting": "[2]; Sodium bisulphite 0.01 mg/ml, solution D", "value": 94, "unit": "%"}, {"measurement": "F XII", "setting": "[2]; Sodium bisulphite 0.05 mg/ml, solution D", "value": 87, "unit": "%"}, {"measurement": "F XII", "setting": "[2]; Sodium bisulphite 0.1 mg/ml, solution D", "value": 79, "unit": "%"}, {"measurement": "F XII", "setting": "[2]; Sodium bisulphite 0.5 mg/ml, solution D", "value": 17, "unit": "%"}, {"measurement": "F XII", "setting": "[2]; Sodium bisulphite 1.0 mg/ml, solution D", "value": 3, "unit": "%"}, {"measurement": "F XII", "setting": "[2]; Sodium bisulphite 5.0 mg/ml, solution D", "value": "<1", "unit": "%"}, {"measurement": "F XII", "setting": "[2]; chemical grade sodium bisulphite 0.01 mg/ml", "value": 104}, {"measurement": "F XII", "setting": "[2]; chemical grade sodium bisulphite 0.05 mg/ml", "value": 102}, {"measurement": "F XII", "setting": "[2]; chemical grade sodium bisulphite 0.1 mg/ml", "value": 75}, {"measurement": "F XII", "setting": "[2]; chemical grade sodium bisulphite 0.5 mg/ml", "value": 25}, {"measurement": "F XII", "setting": "[2]; chemical grade sodium bisulphite 1.0 mg/ml", "value": 9}, {"measurement": "F XII", "setting": "[2]; chemical grade sodium bisulphite 5.0 mg/ml", "value": "<1"}]}]}
